These results are taken from patent US9120812B2, “Pyrimidooxazocine derivatives as mTOR-inhibitors” (SANOFI, priority 2012, dated 2015).

For experiment [1], the target named is mTOR (human recombinant aa mTOR 1360-2549) (Homo sapiens (Human), UniProt P42345). Nature of the experiment: mTOR enzymatic test by TR-FRET (phosphorylation of GFP-4EBP1). The class given is biochemical. Put shortly: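 After a 30 min room-temperature kinase reaction, EDTA (10 mM final) and Tb-labelled phospho-Thr46 antibody (2 nM final) were added and incubated 60 min. Energy transfer from Tb to phosphorylated GFP-4EBP1 was read at 340 nm excitation, emissions 490/520 nm. Values derive from the 520/490 fluorescence ratio.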
For orientation: Time-resolved FRET reads energy transfer from a long-lived donor to a nearby acceptor.

The test system of the next experiment is Akt-pS473 in U87MG cells. The following applies: Homo sapiens, U-87 MG, read-out: U87 Akt-pS473 % Inhibition or IC50, nM (IC50), U87MG cells.
In a further experiment the target is PI3Kα (p110α/p85α) (Homo sapiens (Human), UniProt P42336). Briefly: PI3Kα enzymatic test by measuring the consumption of ATP. Type of experiment: biochemical. The procedure, abridged: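 ATP consumption read out by KinaseGlo luminescence after a 90 min reaction of 1.7 μg/ml PI3Kα (p110α/p85α) with 2 μM ATP and 50 μM PIP2, buffered at pH 7.5 (Tris, 10 mM MgCl2, 1 mM EGTA, 0.03% Chaps, 1 mM DTT). Threefold dilution series over ≥10 000-fold range yield IC50.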

Another experiment relates to U87MG tumour cells. Briefly: Test of in vitro proliferation of U87MG tumour cells. Type of experiment: cell-based. To be noted: Homo sapiens, U-87 MG, 72 h, U87MG cells, 72 hours; read-out: U87 Cell Proliferation IC50. How it is done: Model 4: Test of in vitro Proliferation of U87MG Tumour Cells.
The cell growth is determined with the reagent CellTiter 96 AQueous One Solution Cell Proliferation Assay from Promega (Cat. No. G3581).

mTOR (human recombinant aa mTOR 1360-2549), sequence (P42345 1360-2549): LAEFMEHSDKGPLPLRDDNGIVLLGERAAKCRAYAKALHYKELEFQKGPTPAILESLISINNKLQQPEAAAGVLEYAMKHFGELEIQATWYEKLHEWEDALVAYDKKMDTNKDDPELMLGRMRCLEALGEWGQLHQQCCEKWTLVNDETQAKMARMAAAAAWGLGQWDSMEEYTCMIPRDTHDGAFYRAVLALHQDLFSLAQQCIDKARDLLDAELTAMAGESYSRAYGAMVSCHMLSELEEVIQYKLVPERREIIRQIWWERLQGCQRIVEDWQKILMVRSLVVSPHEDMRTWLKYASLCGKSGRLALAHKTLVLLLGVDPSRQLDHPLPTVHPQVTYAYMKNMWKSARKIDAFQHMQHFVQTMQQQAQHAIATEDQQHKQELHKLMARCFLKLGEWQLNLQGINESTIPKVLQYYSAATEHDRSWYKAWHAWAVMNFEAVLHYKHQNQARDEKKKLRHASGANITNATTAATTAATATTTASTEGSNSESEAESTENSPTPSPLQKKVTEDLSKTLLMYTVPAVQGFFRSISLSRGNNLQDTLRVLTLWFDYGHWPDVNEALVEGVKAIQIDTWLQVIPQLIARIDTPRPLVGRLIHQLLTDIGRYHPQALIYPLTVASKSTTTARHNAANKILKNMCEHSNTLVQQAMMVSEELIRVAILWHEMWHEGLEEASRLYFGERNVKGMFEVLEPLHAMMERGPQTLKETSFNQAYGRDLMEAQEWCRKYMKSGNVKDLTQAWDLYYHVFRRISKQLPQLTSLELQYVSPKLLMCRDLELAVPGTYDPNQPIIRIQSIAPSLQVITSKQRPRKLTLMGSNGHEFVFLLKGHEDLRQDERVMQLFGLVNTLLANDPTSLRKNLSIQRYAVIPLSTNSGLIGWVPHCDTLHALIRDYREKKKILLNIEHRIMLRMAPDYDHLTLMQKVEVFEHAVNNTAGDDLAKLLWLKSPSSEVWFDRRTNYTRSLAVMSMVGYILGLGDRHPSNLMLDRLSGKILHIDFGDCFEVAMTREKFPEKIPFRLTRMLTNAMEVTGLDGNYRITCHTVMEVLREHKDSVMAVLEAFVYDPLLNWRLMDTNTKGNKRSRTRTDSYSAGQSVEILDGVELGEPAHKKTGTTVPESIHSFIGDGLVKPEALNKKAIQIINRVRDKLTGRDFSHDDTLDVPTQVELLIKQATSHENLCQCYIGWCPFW
PI3Kα (p110α/p85α), sequence (P42336 whole entry): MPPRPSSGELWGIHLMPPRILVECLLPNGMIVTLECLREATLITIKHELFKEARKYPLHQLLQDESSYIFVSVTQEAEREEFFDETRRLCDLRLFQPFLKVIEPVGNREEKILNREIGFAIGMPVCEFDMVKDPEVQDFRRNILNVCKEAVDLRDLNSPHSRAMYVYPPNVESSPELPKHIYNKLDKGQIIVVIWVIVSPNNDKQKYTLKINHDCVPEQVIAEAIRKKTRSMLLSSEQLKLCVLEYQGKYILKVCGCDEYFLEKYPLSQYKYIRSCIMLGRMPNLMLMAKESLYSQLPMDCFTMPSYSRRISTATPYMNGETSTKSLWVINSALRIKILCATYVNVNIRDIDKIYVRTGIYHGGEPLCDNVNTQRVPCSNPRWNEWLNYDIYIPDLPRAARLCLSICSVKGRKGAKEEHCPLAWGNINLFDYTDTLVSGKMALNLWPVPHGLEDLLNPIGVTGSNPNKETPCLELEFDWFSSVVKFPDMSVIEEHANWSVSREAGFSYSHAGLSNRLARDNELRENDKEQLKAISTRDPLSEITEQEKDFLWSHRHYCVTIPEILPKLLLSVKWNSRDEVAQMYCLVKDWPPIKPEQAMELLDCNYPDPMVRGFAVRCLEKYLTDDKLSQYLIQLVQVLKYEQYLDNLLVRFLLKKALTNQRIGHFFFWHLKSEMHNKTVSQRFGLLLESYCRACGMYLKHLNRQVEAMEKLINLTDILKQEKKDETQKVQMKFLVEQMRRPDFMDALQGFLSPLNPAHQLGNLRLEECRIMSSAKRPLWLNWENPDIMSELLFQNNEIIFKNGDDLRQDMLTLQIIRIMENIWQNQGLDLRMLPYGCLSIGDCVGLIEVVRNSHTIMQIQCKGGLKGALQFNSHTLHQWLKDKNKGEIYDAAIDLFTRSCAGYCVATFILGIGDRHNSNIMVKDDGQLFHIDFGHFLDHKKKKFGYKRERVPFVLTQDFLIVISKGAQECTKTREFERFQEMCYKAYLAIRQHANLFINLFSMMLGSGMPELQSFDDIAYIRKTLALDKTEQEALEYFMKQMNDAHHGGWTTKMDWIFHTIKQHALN
PI3Kα (p110α/p85α), sequence (P27986 whole entry partner): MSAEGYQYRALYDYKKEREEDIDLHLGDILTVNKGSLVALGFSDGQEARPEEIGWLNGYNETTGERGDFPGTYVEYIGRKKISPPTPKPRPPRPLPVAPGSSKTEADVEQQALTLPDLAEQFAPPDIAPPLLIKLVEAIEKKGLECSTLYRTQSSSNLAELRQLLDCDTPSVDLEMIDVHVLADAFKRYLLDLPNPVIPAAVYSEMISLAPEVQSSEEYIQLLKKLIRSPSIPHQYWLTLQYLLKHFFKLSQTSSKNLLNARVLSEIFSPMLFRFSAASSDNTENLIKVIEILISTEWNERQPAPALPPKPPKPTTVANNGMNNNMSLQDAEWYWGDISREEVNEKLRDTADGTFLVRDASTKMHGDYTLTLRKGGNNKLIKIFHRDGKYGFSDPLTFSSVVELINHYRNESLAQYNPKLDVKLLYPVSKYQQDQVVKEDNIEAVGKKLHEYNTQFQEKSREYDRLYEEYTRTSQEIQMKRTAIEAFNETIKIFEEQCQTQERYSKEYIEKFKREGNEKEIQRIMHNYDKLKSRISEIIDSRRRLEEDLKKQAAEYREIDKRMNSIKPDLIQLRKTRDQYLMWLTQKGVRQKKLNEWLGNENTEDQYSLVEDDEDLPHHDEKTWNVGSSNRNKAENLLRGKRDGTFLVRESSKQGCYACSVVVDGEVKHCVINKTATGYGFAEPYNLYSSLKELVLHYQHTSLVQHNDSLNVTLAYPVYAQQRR

With `CCN1CC(C)(C)Oc2nc(N3CC4CCC(C3)O4)nc(-c3ccc(NC(=O)NC4COC4)c(F)c3)c2C1=O` [Example 137, 1-{4-[6-Ethyl-8,8-dimethyl-2-(8-oxa-3-azabicyclo[3.2.1]oct-3-yl)-5-oxo-5,6,7,8-tetrahydro-9-oxa-1,3,6-triazabenzocyclohepten-4-yl]-2-fluorophenyl}-3-oxetan-3-ylurea], the IC50 turned out to be 29 nM in experiment [1], 241 nM with Akt-pS473 in U87MG cells and 1330 nM with U87MG tumour cells. Further, the “PI3Ka IC50” value on PI3Kα (p110α/p85α) is above 10 µM.
On the same counts, the results for `CCN1CC(C)(C)Oc2nc(N3CC4CCC(C3)O4)nc(-c3ccc(NC(=O)Nc4ccc(OC5CCOC5)cc4)c(F)c3)c2C1=O` (stereo not shown) [Example 77, 1-{4-[6-Ethyl-8,8-dimethyl-2-(8-oxa-3-azabicyclo[3.2.1]oct-3-yl)-5-oxo-5,6,7,8-tetrahydro-9-oxa-1,3,6-triazabenzocyclohepten-4-yl]-2-fluorophenyl}-3-[4-(tetrahydrofuran-3-yloxy)phenyl]urea] are 56 nM, 16 nM, 53 nM and 4.49 µM.
The corresponding values for `CCN1CC(C)(C)Oc2nc(N3CCOC[C@@H]3C)nc(-c3ccc(NC(=O)Nc4ccc(N5CCN(C)CC5)cn4)cc3)c2C1=O` [Example 218, 1-{4-[6-Ethyl-8,8-dimethyl-2-((S)-3-methylmorpholin-4-yl)-5-oxo-5,6,7,8-tetrahydro-9-oxa-1,3,6-triazabenzocyclohepten-4-yl]phenyl}-3-[5-(4-methylpiperazin-1-yl)pyridin-2-yl]urea] are 58 nM, 17 nM, 211 nM and 1.06 µM.
Consider `CCN1CC(C)(C)Oc2nc(N3CC4CCC(C3)O4)nc(-c3ccc(NC(=O)Nc4cc(OC)ccn4)cc3)c2C1=O` [Example 35, 1-{4-[6-Ethyl-8,8-dimethyl-2-(8-oxa-3-azabicyclo[3.2.1]oct-3-yl)-5-oxo-5,6,7,8-tetrahydro-9-oxa-1,3,6-triazabenzocyclohepten-4-yl]phenyl}-3-(4-methoxypyridin-2-yl)urea], for which the IC50 in experiment [1] was determined as 37 nM; in the experiment on Akt-pS473 in U87MG cells it was 75 nM; with U87MG tumour cells, 336 nM. Besides, the “PI3Ka IC50” value at PI3Kα (p110α/p85α) is above 10 µM.
As for `CNC(=O)Nc1ccc(-c2nc(N3CC4CCC(C3)O4)nc3c2C(=O)N(CCOC)CC(C)(C)O3)cc1F` [Example 210, 1-{2-Fluoro-4-[6-(2-methoxyethyl)-8,8-dimethyl-2-(8-oxa-3-azabicyclo[3.2.1]oct-3-yl)-5-oxo-5,6,7,8-tetrahydro-9-oxa-1,3,6-triazabenzocyclohepten-4-yl]phenyl}-3-methylurea], the IC50 came to 41 nM in experiment [1], 174 nM with Akt-pS473 in U87MG cells and 625 nM with U87MG tumour cells. Moreover, the “PI3Ka IC50” value on PI3Kα (p110α/p85α) is above 10 µM.
On the same counts, the results for `CCN1CC(C)(C)Oc2nc(N3C4CCC3COC4)nc(-c3ccc(NC(=O)Nc4ccc(N5C[C@@H]6C[C@H]5CO6)nc4)c(F)c3)c2C1=O` [Example 253, 1-{4-[6-Ethyl-8,8-dimethyl-2-(3-oxa-8-azabicyclo[3.2.1]oct-8-yl)-5-oxo-5,6,7,8-tetrahydro-9-oxa-1,3,6-triazabenzocyclohepten-4-yl]-2-fluorophenyl}-3-[(1S,4S)-6-(2-oxa-5-azabicyclo[2.2.1]hept-5-yl)pyridin-3-yl]urea] are 72 nM, 68 nM, 167 nM and above 10 µM.
For the compound `CCN1CC(C)(C)Oc2nc(N3CC4CCC(C3)O4)nc(-c3ccc(NC(=O)Nc4cnc(N(C)C)cn4)c(F)c3)c2C1=O` [Example 234, 1-(5-Dimethylaminopyrazin-2-yl)-3-{4-[6-ethyl-8,8-dimethyl-2-(8-oxa-3-azabicyclo[3.2.1]oct-3-yl)-5-oxo-5,6,7,8-tetrahydro-9-oxa-1,3,6-triazabenzocyclohepten-4-yl]-2-fluorophenyl}urea], the IC50 was found to be 67 nM in experiment [1], 118 nM in the experiment on Akt-pS473 in U87MG cells and 2290 nM with U87MG tumour cells. The “PI3Ka IC50” value at PI3Kα (p110α/p85α) is above 10 µM.
For the compound `COCCN1CC(C)(C)Oc2nc(N3CC4CCC(C3)O4)nc(-c3ccc(NC(=O)Nc4ccon4)c(F)c3)c2C1=O` [Example 179, 1-{2-Fluoro-4-[6-(2-methoxyethyl)-8,8-dimethyl-2-(8-oxa-3-azabicyclo[3.2.1]oct-3-yl)-5-oxo-5,6,7,8-tetrahydro-9-oxa-1,3,6-triazabenzocyclohepten-4-yl]phenyl}-3-isoxazol-3-ylurea], the IC50 in experiment [1] was found to be 58 nM; in the experiment with Akt-pS473 in U87MG cells, 331 nM; in the experiment with U87MG tumour cells, 1330 nM. Moreover, on PI3Kα (p110α/p85α), the “PI3Ka IC50” value was above 10 µM.
On the same counts, the results for `CCN1CC(C)(C)Oc2nc(N3CC4CCC(C3)O4)nc(-c3ccc(NC(=O)Nc4ccon4)c(F)c3)c2C1=O` [Example 135, 1-{4-[6-Ethyl-8,8-dimethyl-2-(8-oxa-3-azabicyclo[3.2.1]oct-3-yl)-5-oxo-5,6,7,8-tetrahydro-9-oxa-1,3,6-triazabenzocyclohepten-4-yl]-2-fluorophenyl}-3-isoxazol-3-ylurea] are 11 nM, 26 nM, 112 nM and 6.525 µM.
The corresponding values for `CCN1CC(C)(C)Oc2nc(N3CC4CCC(C3)O4)nc(-c3ccc(NC(=O)Nc4ccc(N5CCOC[C@H]5C)nc4)c(F)c3)c2C1=O` [Example 30, 1-{4-[6-ethyl-8,8-dimethyl-2-(8-oxa-3-azabicyclo[3.2.1]oct-3-yl)-5-oxo-5,6,7,8-tetrahydro-9-oxa-1,3,6-triazabenzocyclohepten-4-yl]-2-fluorophenyl}-3-[6-((R)-3-methylmorpholin-4-yl)pyridin-3-yl]urea] are 21 nM, 15 nM, 46 nM and above 10 µM.
As to `CCNC(=O)Nc1ccc(-c2nc(N3CCOC[C@@H]3CC)nc3c2C(=O)N(CC)CC(C)(C)O3)cc1F` [Example 151, 1-Ethyl-3-{4-[6-ethyl-2-((S)-3-ethylmorpholin-4-yl)-8,8-dimethyl-5-oxo-5,6,7,8-tetrahydro-9-oxa-1,3,6-triazabenzocyclohepten-4-yl]-2-fluorophenyl}urea], the IC50 in experiment [1] was 116 nM; in the experiment with Akt-pS473 in U87MG cells, 82 nM; in the experiment on U87MG tumour cells it was 531 nM. The “PI3Ka IC50” value on PI3Kα (p110α/p85α) was above 10 µM.
With `CCN1CC(C)(C)Oc2nc(N3CCOC[C@@H]3C)nc(-c3ccc(NC(=O)Nc4ccc(C)cn4)c(F)c3)c2C1=O` [Example 164, 1-{4-[6-Ethyl-8,8-dimethyl-2-((S)-3-methylmorpholin-4-yl)-5-oxo-5,6,7,8-tetrahydro-9-oxa-1,3,6-triazabenzocyclohepten-4-yl]-2-fluorophenyl}-3-(5-methylpyridin-2-yl)urea], the IC50 was found to be 85 nM in experiment [1], 227 nM with Akt-pS473 in U87MG cells and 872 nM in the experiment with U87MG tumour cells. Moreover, the “PI3Ka IC50” value at PI3Kα (p110α/p85α) worked out at 3.8 µM.
The corresponding values for `CCN1CC(C)(C)Oc2nc(N3CCOC[C@@H]3C)nc(-c3ccc(NC(=O)Nc4ccc(OC)nc4)c(F)c3)c2C1=O` [Example 141, 1-{4-[6-Ethyl-8,8-dimethyl-2-((S)-3-methylmorpholin-4-yl)-5-oxo-5,6,7,8-tetrahydro-9-oxa-1,3,6-triazabenzocyclohepten-4-yl]-2-fluorophenyl}-3-(6-methoxypyridin-3-yl)urea] are 34 nM, 19 nM, 94 nM and 0.598 µM.
On to `CCN1CC(C)(C)Oc2nc(N3C4CCC3COC4)nc(-c3ccc(NC(=O)Nc4cc(C)nc(C)c4)c(F)c3)c2C1=O` [Example 241, 1-(2,6-Dimethylpyridin-4-yl)-3-{4-[6-ethyl-8,8-dimethyl-2-(3-oxa-8-azabicyclo[3.2.1]oct-8-yl)-5-oxo-5,6,7,8-tetrahydro-9-oxa-1,3,6-triazabenzocyclohepten-4-yl]-2-fluorophenyl}urea], for which the values for the IC50 (in experiment [1]; in the experiment with Akt-pS473 in U87MG cells; in the experiment with U87MG tumour cells) were 165 nM, 43 nM and 59 nM, respectively. Moreover, the “PI3Ka IC50” value at PI3Kα (p110α/p85α) was above 10 µM.
On the same counts, the results for `CCN1CC(C)(C)Oc2nc(N3CCOC[C@@H]3C)nc(-c3ccc(NC(=O)Nc4ccn(C)n4)c(F)c3)c2C1=O` [Example 166, 1-{4-[6-Ethyl-8,8-dimethyl-2-((S)-3-methylmorpholin-4-yl)-5-oxo-5,6,7,8-tetrahydro-9-oxa-1,3,6-triazabenzocyclohepten-4-yl]-2-fluorophenyl}-3-(1-methyl-1H-pyrazol-3-yl)urea] are 86 nM, 278 nM, 1270 nM and 2.3 µM.
In the case of `CCN1CC(C)(C)Oc2nc(N3CCOC[C@@H]3C)nc(-c3ccc(NC(=O)OCCO)cc3)c2C1=O` [Example 186, {4-[6-Ethyl-8,8-dimethyl-2-((S)-3-methylmorpholin-4-yl)-5-oxo-5,6,7,8-tetrahydro-9-oxa-1,3,6-triazabenzocyclohepten-4-yl]phenyl}carbamic acid 2-hydroxyethyl ester], the IC50 in experiment [1] is 25 nM; in the experiment on Akt-pS473 in U87MG cells, 60 nM; in the experiment with U87MG tumour cells, 266 nM. Further, the “PI3Ka IC50” value on PI3Kα (p110α/p85α) came to 3.94 µM.
